Assay: xn = mol fraction of the nth substance listed
Conditions: 101 kPa

CC[n+]1ccn(C)c1.F[B-](F)(F)F + CN1CCCC1=O
speed of sound [m/s]
Conditions	293.15 K	298.15 K	303.15 K	308.15 K
x2 = 0.0696	–	–	1598	1586.4
x2 = 0.0871	–	1607.6	1595.9	1584.2
x2 = 0.1273	1615.1	1603.2	–	1579.3
x2 = 0.1676	1611.5	1599.5	1587.2	–
x2 = 0.2658	1605.6	1592	1579	1565.5
x2 = 0.2689	1605.3	1592	–	1565.2
x2 = 0.3228	1603.2	1589	1575.2	1560.7
x2 = 0.3683	1601.7	1586.9	–	1557.7
x2 = 0.4291	1600	1584.2	–	–
x2 = 0.4744	1599.2	1582.6	1566.9	1551
x2 = 0.5227	1597.8	1581	–	1547.9
x2 = 0.5685	1596.9	1579	1562.4	1545.4
x2 = 0.6286	1595	1576.7	1559.3	1541.5
x2 = 0.6703	1593	1574.5	–	1539
x2 = 0.7291	1590.1	1571.2	1553.4	1534.5
x2 = 0.7711	1587.7	–	1550.1	1531.2
x2 = 0.8188	1584	1564.7	–	–
x2 = 0.8887	1577.9	1558.4	1539.7	1520.3

O=C1CCCN1 + CC[n+]1ccn(C)c1.F[B-](F)(F)F
speed of sound [m/s]
Conditions	293.15 K	298.15 K	303.15 K	308.15 K
x1 = 0.0786	1634.5	1622.4	1612.6	1602.5
x1 = 0.0912	1635	–	1613.4	1603.4
x1 = 0.1278	1636.6	1624.6	1615.4	1605.6
x1 = 0.1711	–	1626.5	–	–
x1 = 0.2294	–	–	1620.5	–
x1 = 0.2686	1642.3	1630.8	1622.3	–
x1 = 0.3292	1644.6	1633.3	1624.5	1613.2
x1 = 0.3684	1646.2	1634.8	1626	1614
x1 = 0.4283	1648.7	1637.1	1627.7	1615
x1 = 0.4695	1650.2	1638.6	1628.3	1615.7
x1 = 0.5281	–	1640	1629.2	1615.9
x1 = 0.5711	1653.7	1641.1	–	1616.2
x1 = 0.6283	1655.2	1641.9	1629.5	1615.9
x1 = 0.6603	1656	1642.1	1629.2	1615.3
x1 = 0.7302	1656.7	–	1628	–
x1 = 0.7598	–	1641.5	1627.1	–
x1 = 0.8296	1656.4	1640.1	1624.9	1611
x1 = 0.8901	–	1638.4	–	1608.3

— a compilation of properties of binary mixtures (doi:10.1021/je300542s)
